Results published in PMC7602804 (Nutrients, 2020).
No end group written: not given here.

Test system: pepsin, then trypsin, chymotrypsin and elastase
Assay: In vitro simulation of gastrointestinal digestion
Assay type: in vitro ADME
Details: 37 °C
Description: The purified milk peptides and the synthesized PIGSENSEKTTMPLW and […] peptides were subjected to digestion, essentially as described in [5, 26] with few modifications. The peptides were dissolved in 0.15 M of NaCl with a pH of 2.5 at a concentration of 1 mg/mL and incubated with pepsin from porcine gastric mucosa in a 1:100 w/w enzyme to substrate ratio for 60 min at 37 °C. Before digestion with pancreatic proteases, the sample was lyophilized and washed twice in deionized water. Trypsin and chymotrypsin from a bovine pancreas (Worthington Biochemical Corporation, NJ, USA) (1:100 w/w) and elastase (Worthington) (1:500 w/w) were added in 50 mM of ammonium bicarbonate buffer (pH = 7.6) and the mixture was incubated for 60 min at 37 °C. In digests of the synthesized peptides, aliquots were sampled and analyzed after 5 min, 30 min, 60 min and 270 min incubation with the intestinal enzymes. Bovine milk osteopontin was purified as previously described and incubated with the digestive proteases to validate their activity. The digested milk peptides were separated by RP-HPLC on an Aeris C4 widepore column (Phenomenex, Værløse, Denmark) connected to a Shimadzu (Kyoto, Japan) HPLC system. The peptides were separated in 0.1% TFA (buffer A) and eluted with a gradient of 60% acetonitrile in 0.1% TFA (buffer B) at 40 °C. The gradient was developed over 59 min (0–5 min: 0% buffer B; 5–49 min: 0–98% buffer B; 49–59 min: 98% buffer B) at a flow rate of 0.85 mL/min. The peptides were detected by measuring the absorbance at 226 nm and analyzed by matrix-assisted laser desorption ionization time-of-flight mass spectrometry (MALDI-MS).
MALDI-MS was performed using a Bruker Autoflex III instrument (Bruker Daltonics, Bremen, Germany). The analysis was performed using a saturated solution of α-cyano-4-hydroxycinnamic acid. The instrument was operated in reflected positive ionization mode and calibrated in the mass range of 1000 to 3200 Da using a peptide calibration standard (Bruker Daltonics, Bremen, Germany). The theoretical peptide masses were calculated using the General Protein/Mass Analysis for Windows software (Lighthouse Data, Odense, Denmark).

Stability of the synthetic peptide / control in simulated gastrointestinal digestion (1 mg/mL, pepsin 1:100 w/w, 0.15 M NaCl pH 2.5, 60 min, chymotrypsin 1:100 and elastase 1:500 w/w, 50 mM ammonium bicarbonate pH 7.6, 37 °C, sampled 5, 30, 60 and 270 min, MALDI-MS (osteopontin: SDS-PAGE)): observed even after 270 min of digestion
Resistance to simulated gastrointestinal digestion within the purified milk peptide mix (purified milk peptides 1 mg/mL, pepsin 1:100, pH 2.5, 60 min, chymotrypsin 1:100, elastase 1:500, pH 7.6, 60 min, RP-HPLC fractions, MALDI-MS, before and after digestion): observed
Sequence: PIGSENSEKTTMPLW [PIGSENSEKTTMPLW]
